Measured values published in patent US20070099905A1, “Combinations of drugs for the treatment of neoplasms” (priority 2002, published 2007).
Values joined by “and” are separate entries in the source; they are usually repeats but may differ in a detail not shown here. Identical values can stand only once. Like-named read-outs stand apart in the source and are kept apart here.

Columns and labels:
[1] = cited from earlier work
HCT 116 = HCT 116 human colon cancer xenograft model; format: in vivo, SCID mice; settings: 25 mg/Kg (M-F)
Experimental: (§1) All experiments were carried out using male or female 6-8 week old SCID Hsd:ICR(CD-1) mice (Harlan, Indianapolis, Ind.). A-549 cells were harvested, resuspended in DMEM minus serum, and injected subcutaneously into the right flanks (4×10^6 cells/flank in a 300 μL volume). HCT 116 cells were harvested, resuspended in McCoy's 5A minus serum, and injected subcutaneously into the right and left flanks (5×10^6 cells/flank in a 300 μL volume). Tumor volumes were determined by measuring the length (1) and the width (w) and calculating the volume (V=1 w^2/2). Depending on the study, the tumors were between about 150 mm^3-about 800 mm^3 at the time of animal randomization into treatment groups (n=8-10 mice per group).
(§2) Control animals received 200 μL injections of vehicle only.
(§3) Evaluation of the results included statistical analysis of differences in tumor size between test and control groups at the end of each treatment period. Group means were compared using a one-way ANOVA. If the ANOVA was significant, i.e., p≦0.05, a Dunnett's multiple comparison test was used to determine which groups were different. Only animals surviving to the completion of the treatment period were included in the analysis.

[2] = system: A549 human lung tumor xenografts; assay: A549 human lung tumor xenograft model; format: in vivo, SCID mice; settings: for Reduction in Tumor Volume (% decrease relative to control), positive control: 20 mg/Kg (M, W, F); for Reduction in Tumor Volume (% decrease relative to control), positive control / Tumor volume compared to control animals, single agent alone: 2 week treatment; for Tumor volume compared to control animals, single agent alone: female SCID mice
Experimental: as §1, §2, §3
(§4) A549 cells were injected subcutaneously into female SCID mice and the tumor volumes were allowed to reach about 400 mm^3 prior to animal randomization. Animals were administered one of the above combinations or saline vehicle control intraperitoneally five times per week (each day, Monday through Friday) for two weeks.
as §4, with “male” for “female”, “drug combination” for “one of the above combinations”, “or” for “or saline”, “for three weeks. Treatment was stopped for a one week recovery period, then continued as before for an additional” for “for”

[3] = gastrointestinal tract; cited from earlier work
[4] = mouse, in vivo
Experimental: Unless otherwise stated, drugs were administered daily Monday to Friday. Paclitaxel was administered 3 days per week, Monday, Wednesday, and Friday only. All drugs were administered by intraperitoneal injection in a volume of 100 μL/25 grams. Animals undergoing combination therapy received two individual injections for a total of 200 μL per mouse. Control animals received 200 μL injections of vehicle only.

endo-exonuclease = settings: PCT Publication No. WO 01/35935; cited from earlier work
[5] = target: T1, protein tyrosine phosphatase 1B (PTP1B) (Homo sapiens, UniProt P18031); settings: cited from earlier work
T1 sequence (P18031 1-435): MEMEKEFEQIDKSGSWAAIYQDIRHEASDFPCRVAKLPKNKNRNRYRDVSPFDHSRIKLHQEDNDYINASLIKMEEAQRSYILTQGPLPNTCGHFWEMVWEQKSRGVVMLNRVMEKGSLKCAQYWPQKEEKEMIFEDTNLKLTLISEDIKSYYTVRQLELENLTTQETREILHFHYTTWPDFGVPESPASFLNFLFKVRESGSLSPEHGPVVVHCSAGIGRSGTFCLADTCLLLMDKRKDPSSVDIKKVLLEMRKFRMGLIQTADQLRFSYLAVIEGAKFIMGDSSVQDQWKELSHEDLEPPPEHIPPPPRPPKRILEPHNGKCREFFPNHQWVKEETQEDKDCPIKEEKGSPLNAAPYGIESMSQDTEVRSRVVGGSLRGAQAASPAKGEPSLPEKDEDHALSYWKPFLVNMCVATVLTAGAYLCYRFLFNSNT

[6] = mice, single intraperitoneal injection 10 mg/kg; cited from earlier work
[7] = system: phosphatases of regenerating liver (PRL); settings: cited from earlier work

Structure (SMILES): N=C(N)c1ccc(OCCCCCOc2ccc(C(=N)N)cc2)cc1 [Pentamidine isethionate, 4,4′-diamidino-diphenoxypentane di(β-hydroxyethanesulfonate)]
- Solubility ([1]; ether, acetone, and chloroform): insoluble
- Solubility ([1]; water and glycerin): soluble

Structure (SMILES): O=c1[nH]cc(F)c(=O)[nH]1 [5-FU, 5-fluorouracil]
- Reduction in Tumor Volume (% decrease relative to control), positive control (HCT 116): 47%

Structure (SMILES): CC(=O)O[C@H]1C(=O)[C@@]2(C)[C@H]([C@H](OC(=O)c3ccccc3)[C@]3(O)C[C@H](OC(=O)[C@H](O)[C@@H](NC(=O)c4ccccc4)c4ccccc4)C(C)=C1C3(C)C)[C@]1(OC(C)=O)CO[C@@H]1C[C@@H]2O [Taxol, paclitaxel]
- Reduction in Tumor Volume (% decrease relative to control), positive control [2]: 24% and 29%
- Reduction in Tumor Volume (% decrease relative to control), positive control ([2]; listed as paclitaxel): 24%
- Tumor volume less than vehicle control ([2]; 20 mg/Kg, end of first treatment period (3 weeks), male SCID mice): 27%

Structure (SMILES): CN(C)CCCN1c2ccccc2Sc2ccc(Cl)cc21 [chlorpromazine]
- Absorption [3]: readily absorbed
- Tumor volume compared to control animals, single agent alone [2]: no decrease in tumor volumes
- Time to sedation after administration ([4]; SCID Hsd:ICR(CD-1), ip): ≤ 10 min
- Sedation and hypothermia at lower doses [4]: reduced period of sedation and associated hypothermia

Structure (SMILES): N=C(N)c1ccc(OCCCCCOc2ccc(C(=N)N)cc2)cc1 [pentamidine]
- Inhibition of endo-exonuclease activity (endo-exonuclease): inhibit the activity
- Inhibition of PTP1B [5]: effective inhibitor
- Tissue distribution [6]: concentration in the kidneys was the highest, followed by that in the liver
- Tumor volume compared to control animals, single agent alone [2]: no decrease in tumor volumes
- Inhibition of PRL [7]: potent inhibitor
